Assay results: patent US5403934A, “Heterocyclic compounds” (Burroughs Wellcome Co., priority 1990, dated 1995)

Experiments:
[1] = test system: Plasmodium falciparum; assay: In vitro activity vs. Plasmodium falciparum (modified semi-automated microdilution technique of Desjardins et al, [3H]-hypoxanthine); type: cell-based; settings: Erythrocyte, human erythrocytes, RPMI 1640 + 10% human plasma, 37° C, number of tests in parentheses in own column
Protocol: 1. In vitro Activity vs. Plasmodium falciparum The in vitro activity of the test compounds was determined using a modification of the semi-automated microdilution technique of Desjardins et al (1979). Initial dilutions were prepared from 1/100th molecular weight (in mg) of the compounds dissolved in dry ethanol, with the first 1:100 dilution being in ethanol and subsequent dilutions in RPMI 1640 medium supplemented with 10% v/v human plasma. Serial 1:2 drug dilutions were prepared in microtitration trays using microdiluters, each dilution being set up in triplicate. To this was added RPMI 1640 medium supplemented with 10% v/v human plasma, fresh and infected type A Rhesus positive human erythrocytes to yield a haematocrit of 3% and a parasitaemia of 0.25-0.5%. [^3 H]-hypoxanthine was added to give a final concentration of 12.5-16 μCi/ml of culture. The plates were sealed and incubated in a modular incubator in a gas mixture of 5% O2; 3% CO2 and 92% N2 by volume at 37° C. The test was completed as described by Desjardins et at (1979). Data were analysed to yield IC50 values by best fit to a sigmoidal dose-response curve.

[2] = test system: P. yoelii; assay: Mouse 4-day suppressive test vs P. yoelii; type: in vivo; settings: Plasmodium yoelii, P. yoelii YM strain, 7 oral doses in 4 days, CD1 mice, parasitaemia day 5
Protocol: 2. In vivo Activity vs. P.yoelii in the Mouse
In vivo activity was determined using the modified 4-day suppressive test involving an infection of the YM strain of P.yoelii by 3×10^6 parasitized erythrocytes/ml and 7 oral doses given in 4 days in CD1 mice. Drugs were formulated by ball milling overnight in 0.25% celacol with stainless steel balls to form a fine particle suspension. The total requirement was formulated at the beginning of a test and thereafter stored at 4° C. On the morning of day 5 smears of tail blood were prepared from each mouse, the parasitaemias counted and the inhibition as compared to control animals calculated. Data were analysed to yield ED50 values by the best fit to a sigmoidal dose response curve, and the results are presented in Table 2 below.

| Compound | IC50 [1] | ED50 [2] |
| --- | --- | --- |
| Cc1[nH]c(C)c(-c2ccc(Oc3ccc(OC(F)(F)F)cc3)cc2)c(=O)c1Br [Example 14, 3-Bromo-5-(4-(4-trifluoromethoxyphenoxy)phenyl)-2,6-dimethylpyridin-4(1H)-one] | 23 nM | 0.34 mg/kg |
| CCCCCCCCc1c(C)[nH]c(C)c(C#N)c1=O [Example 10, 5-Cyano-2,6-dimethyl-3-octylpyridin-4(1H)-one] | 2300 nM |  |
| Cc1[nH]c(C)c(-c2ccc(Oc3ccc(OC(F)(F)F)cc3)cc2)c(=O)c1Cl [Example 15, 3-Chloro-5-(4-(4-trifluoromethoxyphenoxy)phenyl)-2,6-dimethylpyridin-4(1H)-one] | 20 nM | 0.19 mg/kg |
| Cc1[nH]c(C)c(-c2ccc(-c3ccc(Cl)cc3)cc2)c(=O)c1Cl [Example 8, 3-Chloro-5-(4'-chloro-4-biphenylyl)-2,6-dimethylpyridin-4(1H)-one] | 500 nM | 0.6 mg/kg |
| Cc1[nH]c(C)c(-c2ccc(Oc3ccc(C(F)(F)F)cc3)cc2)c(=O)c1Br [Example 5, 3-Bromo-5-(4-(4-trifluoromethylphenoxy)phenyl)-2,6-dimethylpyridin-4(1H)-one] | 220 nM | 0.26 mg/kg |
| Cc1cc(=O)c(-c2ccc(Oc3ccc(Cl)cc3)cc2)c(C)[nH]1 [Example 1, 3-(4-(4-Chlorophenoxy)phenyl)-2,6-dimethylpyridin-4(1H)-one] | 2500 nM | 2.5 mg/kg |
| Cc1cc(=O)c(-c2ccc(Oc3ccc(C(F)(F)F)cc3)cc2)c(C)[nH]1 [Example 4, 3-(4-(4-Trifluoromethylphenoxy)phenyl)-2,6-dimethylpyridin-4(1H)-one] | 1100 nM | 1.25 mg/kg |
| Cc1c(Br)c(=O)c(-c2ccc(Cl)cc2)c(C)n1C [Example 12, 3-Bromo-5-(4-Chlorophenyl)-1,2,6-trimethylpyridin-4-one] | 23500 nM | 16.4 mg/kg |
| Cc1[nH]c(C)c(-c2ccc(Oc3ccc(Cl)cc3)cc2)c(=O)c1Br [Example 2, 3-Bromo-5-[4-(4-chlorophenoxy)phenyl]-2,6-dimethylpyridin-4(1H)-one] | 200 nM | 0.7 mg/kg |
| Cc1[nH]c(C)c(-c2ccc(Oc3ccc(Cl)cc3)cc2)c(=O)c1Cl [Example 3, 3-Chloro-5-(4-(4-chlorophenoxy)phenyl)-2,6-dimethylpyridin-4(1H)-one] | 1400 nM | 1.6 mg/kg |
| Cc1[nH]c(C)c(-c2ccc(Oc3ccc([S+](C)[O-])cc3)cc2)c(=O)c1Br (stereo not drawn) [Example 16, 3-Bromo-2,6-dimethyl-5-(4-(4-methylsulphinylphenoxy)phenyl)pyridin-4(1H)-one] | 1600 nM |  |
| Cc1cc(=O)c(-c2ccc(-c3ccc(Cl)cc3)cc2)c(C)[nH]1 [Example 6, 3-(4'-Chloro-4-biphenylyl)-2,6-dimethylpyridin-4(1H)-one] | 8400 nM | 1.6 mg/kg |
| Cc1[nH]c(C)c(-c2ccc(-c3ccc(Cl)cc3)cc2)c(=O)c1Br [Example 7, 3-Bromo-5-(4'-chloro-4-biphenylyl)-2,6-dimethylpyridin-4(1H)-one] | 2000 nM | 1.4 mg/kg |
